The supplement of paper PMC10627819

Columns and labels:
[1] = system: S. pneumoniae D39V; experiment: fitness (endpoint OD595 vs no drug) (fraction); higher = more growth
In short: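 Fitness expresses the optical density reached at the stationary-phase transition as a fraction of the robust mean of no-drug control wells. It is capped at 1. Measurements were OD595 every 30 min for 14 h at 37 °C after inoculation of 384-well plates at OD595 0.01 (30 µl, or 55 µl for S. pneumoniae), minus the first reading.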

[2] = system: B. subtilis 168; experiment: Bliss interaction score (quartile over a dose matrix) (fitness difference); higher = more antagonism (negative = synergy)
In short: (§1)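 Values were capped at 1 after dividing OD595 at stationary-phase entry by the plate's robust no-drug mean. This ratio is fitness, and single-drug fitness was inferred from the combination data. The Bliss score is observed minus product-expected fitness, given as quartiles over technical, biological and donor/recipient replicates.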

[3] = system: S. aureus DSM 20231; experiment: as above
In short: as §1

[4] = system: S. aureus Newman; experiment: as above
In short: as §1

[5] = system: S. pneumoniae D39V; experiment: as above
In short: as §1
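For Bliss interaction score (quartile over a dose matrix) in this document: first quartile when negative (synergy) and third quartile when positive (antagonism).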

CC[C@H]1OC(=O)[C@H](C)[C@@H](O[C@H]2C[C@@](C)(OC)[C@@H](O)[C@H](C)O2)[C@H](C)[C@@H](O[C@@H]2O[C@H](C)C[C@H](N(C)C)[C@H]2O)[C@](C)(OC)C[C@@H](C)C(=O)[C@H](C)[C@@H](O)[C@]1(C)O [Clarithromycin] + CCC[C@@H]1C[C@@H](C(=O)N[C@@H]([C@H]2O[C@H](SC)[C@H](O)[C@@H](O)[C@H]2O)[C@@H](C)O)N(C)C1 [Lincomycin]
fitness, [1], one replicate
Conditions	first compound 0.007812 µg/mL	first compound 0.01562 µg/mL	first compound 0.03125 µg/mL
partner 0.2 µg/mL	0.614	0.678	0.559
partner 0.4 µg/mL	0.545	0.619	0.395
partner 0.8 µg/mL	0.0517	0.0966	0.0574

fitness, [1]
Conditions	first compound 0.0625 µg/mL	first compound 0.07 µg/mL	first compound 0.125 µg/mL	first compound 0.14 µg/mL	first compound 0.25 µg/mL	first compound 0.28 µg/mL
partner 0.2 µg/mL	–	0.0703	–	0.063	–	0.0359
partner 0.215 µg/mL	0.656	–	0.487	–	0.328	–
partner 0.4 µg/mL	–	0.0783	–	0.0665	–	0.035
partner 0.43 µg/mL	0.599	–	0.367	–	0.262	–
partner 0.8 µg/mL	–	0.0297	–	0.0353	–	0.0359
partner 0.86 µg/mL	0.269	–	0.131	–	0.0936	–

Conditions	Bliss interaction score
[2]	0.103
[3]	-0.12
[4]	-0.144
[5]	0.0426

CC[C@H]1OC(=O)[C@H](C)[C@@H](O[C@H]2C[C@@](C)(OC)[C@@H](O)[C@H](C)O2)[C@H](C)[C@@H](O[C@@H]2O[C@H](C)C[C@H](N(C)C)[C@H]2O)[C@](C)(OC)C[C@@H](C)C(=O)[C@H](C)[C@@H](O)[C@]1(C)O [Clarithromycin] + CCN(CC)CCOC(=O)c1ccc(N)cc1 [Procaine]
fitness, [1], one replicate
Conditions	first compound 0.007812 µg/mL	first compound 0.01562 µg/mL	first compound 0.03125 µg/mL	first compound 0.0625 µg/mL	first compound 0.125 µg/mL	first compound 0.25 µg/mL
partner 85.5 µg/mL	0.962	0.921	0.691	0.659	0.251	0.102
partner 171 µg/mL	0.983	0.903	0.702	0.77	0.284	0.169
partner 342 µg/mL	0.993	0.923	0.719	0.595	0.464	0.33

fitness, [1]
Conditions	first compound 0.07 µg/mL	first compound 0.14 µg/mL	first compound 0.28 µg/mL
partner 85.5 µg/mL	0.125	0.0737	0.0531
partner 171 µg/mL	0.141	0.065	0.0466
partner 342 µg/mL	0.141	0.0668	0.061

Conditions	Bliss interaction score
[2]	0.0395
[3]	0.0493
[4]	0.0711
[5]	0.0576

CC[C@H]1OC(=O)[C@H](C)[C@@H](O[C@H]2C[C@@](C)(OC)[C@@H](O)[C@H](C)O2)[C@H](C)[C@@H](O[C@@H]2O[C@H](C)C[C@H](N(C)C)[C@H]2O)[C@](C)(OC)C[C@@H](C)C(=O)[C@H](C)[C@@H](O)[C@]1(C)O [Clarithromycin] + CN1C2=CC=CC=C2N=C3C1=CC=CC3=O [Pyocyanin]
fitness, [1], one replicate
Conditions	first compound 0.007812 µg/mL	first compound 0.01562 µg/mL	first compound 0.03125 µg/mL	first compound 0.0625 µg/mL	first compound 0.125 µg/mL	first compound 0.25 µg/mL
partner 0.325 µg/mL	0.965	0.884	0.682	0.757	0.486	0.112
partner 0.65 µg/mL	0.928	0.88	0.651	0.75	0.501	0.273
partner 1.3 µg/mL	0.747	0.695	0.525	–	–	–

fitness, [1]
Conditions	first compound 0.07 µg/mL	first compound 0.14 µg/mL	first compound 0.28 µg/mL
partner 0.325 µg/mL	0.0912	0.0902	0.0525
partner 0.65 µg/mL	0.0867	0.0888	0.0453
partner 1.3 µg/mL	0.0798	0.0783	0.0672

Conditions	Bliss interaction score
[2]	0.0334
[3]	-0.0903
[4]	-0.0697
[5]	-0.0433

CC[C@H]1OC(=O)[C@H](C)[C@@H](O[C@H]2C[C@@](C)(OC)[C@@H](O)[C@H](C)O2)[C@H](C)[C@@H](O[C@@H]2O[C@H](C)C[C@H](N(C)C)[C@H]2O)[C@](C)(OC)C[C@@H](C)C(=O)[C@H](C)[C@@H](O)[C@]1(C)O [Clarithromycin] + CN(C)C(=O)C(CCN1CCC(O)(c2ccc(Cl)cc2)CC1)(c1ccccc1)c1ccccc1 [Loperamide]
fitness, [1], one replicate
Conditions	first compound 0.007812 µg/mL	first compound 0.01562 µg/mL	first compound 0.03125 µg/mL	first compound 0.0625 µg/mL	first compound 0.125 µg/mL	first compound 0.25 µg/mL
partner 20 µg/mL	≥ 1	≥ 1	0.711	–	–	–
partner 40 µg/mL	≥ 1	0.995	0.768	–	–	–
partner 68.57 µg/mL	–	–	–	0.913	0.515	0.498
partner 80 µg/mL	0.0268	0.0618	0.0304	–	–	–

fitness, [1]
Conditions	first compound 0.0625 µg/mL	first compound 0.07 µg/mL	first compound 0.125 µg/mL	first compound 0.14 µg/mL	first compound 0.28 µg/mL
partner 17.14 µg/mL	0.788	–	0.541	–	–
partner 20 µg/mL	–	0.168	–	0.0771	0.0614
partner 34.28 µg/mL	0.751	–	0.491	–	–
partner 40 µg/mL	–	0.173	–	0.0855	0.0994
partner 80 µg/mL	–	0.0672	–	0.0833	0.047

Conditions	Bliss interaction score
[2]	0.0248
[3]	0.18
[4]	-0.0355
[5]	0.129

CC[C@H]1OC(=O)[C@H](C)[C@@H](O[C@H]2C[C@@](C)(OC)[C@@H](O)[C@H](C)O2)[C@H](C)[C@@H](O[C@@H]2O[C@H](C)C[C@H](N(C)C)[C@H]2O)[C@](C)(OC)C[C@@H](C)C(=O)[C@H](C)[C@@H](O)[C@]1(C)O [Clarithromycin] + CN(C)c1cc(NC(=O)CNC(C)(C)C)c(O)c2c1C[C@H]1C[C@H]3[C@H](N(C)C)C(O)=C(C(N)=O)C(=O)[C@@]3(O)C(O)=C1C2=O [Tigecycline]
fitness, [1], one replicate
Conditions	first compound 0.007812 µg/mL	first compound 0.01562 µg/mL	first compound 0.03125 µg/mL
partner 0.65 µg/mL	0.848	0.757	0.646
partner 1.3 µg/mL	0.813	0.749	0.633
partner 2.6 µg/mL	0.815	0.747	0.619

fitness, [1]
Conditions	first compound 0.0625 µg/mL	first compound 0.07 µg/mL	first compound 0.125 µg/mL	first compound 0.14 µg/mL	first compound 0.25 µg/mL	first compound 0.28 µg/mL
partner 0.325 µg/mL	–	0.111	–	0.071	–	0.0539
partner 0.65 µg/mL	0.589	0.0865	0.253	0.0638	0.113	0.0627
partner 1.3 µg/mL	0.506	0.0861	0.213	0.0727	0.103	0.068
partner 2.6 µg/mL	0.494	–	0.198	–	0.119	–

Conditions	Bliss interaction score
[2]	0.0852
[3]	0.0343
[4]	-0.0401
[5]	-0.0848

CC[C@H]1OC(=O)[C@H](C)[C@@H](O[C@H]2C[C@@](C)(OC)[C@@H](O)[C@H](C)O2)[C@H](C)[C@@H](O[C@@H]2O[C@H](C)C[C@H](N(C)C)[C@H]2O)[C@](C)(OC)C[C@@H](C)C(=O)[C@H](C)[C@@H](O)[C@]1(C)O [Clarithromycin] + CN(N=O)C(=O)N[C@@H](C=O)[C@@H](O)[C@H](O)[C@H](O)CO [Streptozotocin]
fitness, [1], one replicate
Conditions	first compound 0.007812 µg/mL	first compound 0.01562 µg/mL	first compound 0.03125 µg/mL	first compound 0.0625 µg/mL	first compound 0.125 µg/mL	first compound 0.25 µg/mL
partner 1.2 µg/mL	0.873	0.804	0.673	0.674	0.263	0.0915
partner 2.4 µg/mL	0.877	0.815	0.672	0.713	0.32	0.134
partner 4.8 µg/mL	0.87	0.802	0.661	0.537	0.0252	0

fitness, [1]
Conditions	first compound 0.07 µg/mL	first compound 0.14 µg/mL	first compound 0.28 µg/mL
partner 1.2 µg/mL	0.115	0.0648	0.031
partner 2.4 µg/mL	0.119	0.0981	0.0724
partner 4.8 µg/mL	0.0916	0.0774	0.033

Conditions	Bliss interaction score
[2]	0.0503
[3]	0.0361
[4]	-0.0313
[5]	0.0525

CC[C@H]1OC(=O)[C@H](C)[C@@H](O[C@H]2C[C@@](C)(OC)[C@@H](O)[C@H](C)O2)[C@H](C)[C@@H](O[C@@H]2O[C@H](C)C[C@H](N(C)C)[C@H]2O)[C@](C)(OC)C[C@@H](C)C(=O)[C@H](C)[C@@H](O)[C@]1(C)O [Clarithromycin] + CN[C@@H]1[C@H](O)[C@H](NC)[C@H]2O[C@@]3(O)C(=O)C[C@@H](C)O[C@H]3O[C@@H]2[C@H]1O [Spectinomycin]
fitness, [1], one replicate
Conditions	first compound 0.007812 µg/mL	first compound 0.01562 µg/mL	first compound 0.03125 µg/mL	first compound 0.0625 µg/mL	first compound 0.125 µg/mL	first compound 0.25 µg/mL
partner 4 µg/mL	0.836	0.755	0.669	0.725	0.326	0.156
partner 8 µg/mL	0.741	0.72	0.658	0.676	0.221	0.114
partner 16 µg/mL	0.644	0.664	0.528	–	–	–

fitness, [1]
Conditions	first compound 0.07 µg/mL	first compound 0.14 µg/mL	first compound 0.28 µg/mL
partner 4 µg/mL	0.138	0.0851	0.0564
partner 8 µg/mL	0.138	0.0752	0.0774
partner 16 µg/mL	0.114	0.0949	0.0947

Conditions	Bliss interaction score
[2]	-0.0725
[3]	-0.142
[4]	-0.181
[5]	-0.0344
